Measurements: publication PMC12216609, “Inhibitors of eIF1A-ribosome interaction unveil uORF-dependent regulation of translation initiation and antitumor and antiviral effects” (The EMBO Journal, 2025)
Where “and” joins values, the source holds several entries; their conditions need not be identical. Equal values may be shown once. Read-outs that look alike come from different tables or passages of the source.

Columns and labels:
eIF1A-RPS10 interaction = target: T1, eIF1A-RPS10 interaction (Homo sapiens, UniProt P46783+P47813); experiment: Split-Renilla luciferase eIF1A-RPS10 interaction screen, dose-response; format: biochemical; conditions: summary table; read-out: IC50 concentration (µM), IC50 screen
T1 construct: made in house; host or cells: E. coli BL21 (PRSFduet); unpurified lysate supernatant
T1 sequence (P47813 whole entry, one chain of several): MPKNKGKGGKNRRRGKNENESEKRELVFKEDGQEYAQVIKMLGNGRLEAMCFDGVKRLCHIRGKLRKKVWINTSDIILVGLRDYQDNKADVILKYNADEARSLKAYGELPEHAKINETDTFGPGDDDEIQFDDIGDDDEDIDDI
How it was run: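 The assay used bacterial lysates containing human eIF1A and RPS10, each carrying a partial Renilla luciferase, with eIF1A tagged at its C-terminus. Inhibition was scored as reduced luciferase signal from compounds prepared as 10 mM DMSO stocks.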

eIF1A = target: T2, eIF1A (Homo sapiens, UniProt P47813); format: binding; conditions: for fluorescence ratio, eIF1A: background-corrected, relative to DMSO or lowest 1Ai concentration, replicate columns
T2 construct: His-bdSUMO (cleaved yes); made in house; host or cells: E. coli BL-21
T2 sequence (P47813 whole entry): as the sequence (P47813 whole entry, one chain of several) above

RPS10 = target: T3, RPS10 (Homo sapiens, UniProt P46783); format: binding
T3 construct: made in house; host or cells: E. coli BL-21

[1] = test system: cap-proximal AUG GFP reporter in HEK293T cells; format: cell-based; conditions: GFP WB densitometry; 20 µM overnight; dmso 0.965946;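 further: ratio of upstream to downstream AUG initiation products on GFP Western blot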
NSP1 = NSP1 (Severe acute respiratory syndrome coronavirus 2, UniProt P0DTD1)
[2] = eIF1A, from the titration data, read-out: IC50 (eIF1A titration block)
[3] = summary table, fluorescence binding assay, read-out: IC50 concentration (µM), WT eIF1A

Row | Compound | IC50 (eIF1A-RPS10 interaction) | fluorescence ratio, eIF1A (eIF1A; 1Ai conc. 0.25 uM) | fluorescence ratio, eIF1A (eIF1A; 1Ai conc. 0.5 uM) | fluorescence ratio, eIF1A (eIF1A; 1Ai conc. 1 uM) | fluorescence ratio, eIF1A (eIF1A; 1Ai conc. 2 uM) | fluorescence ratio, eIF1A (eIF1A; 1Ai conc. 4 uM) | fluorescence ratio, eIF1A (eIF1A; 1Ai conc. 8 uM) | fluorescence ratio, eIF1A (eIF1A; 1Ai conc. 16 uM) | fluorescence ratio, eIF1A (eIF1A; 1Ai conc. 32 uM) | fluorescence ratio, eIF1A (eIF1A; 1Ai conc. 64 uM) | fluorescence ratio, eIF1A (eIF1A; 1Ai conc. 256 uM) | IC50 (eIF1A; [2]) | IC50 (eIF1A; [3]) | RPS10 fluorescence ratio to control (RPS10; 1Ai conc. 0.25 uM) | RPS10 fluorescence ratio to control (RPS10; 1Ai conc. 0.5 uM) | RPS10 fluorescence ratio to control (RPS10; 1Ai conc. 1 uM) | RPS10 fluorescence ratio to control (RPS10; 1Ai conc. 2 uM) | RPS10 fluorescence ratio to control (RPS10; 1Ai conc. 4 uM) | RPS10 fluorescence ratio to control (RPS10; 1Ai conc. 8 uM) | RPS10 fluorescence ratio to control (RPS10; 1Ai conc. 16 uM) | other results
1 | O=C(COc1ccccc1[N+](=O)[O-])NCc1ccc(-c2ccc(Br)cc2)o1 [1Ai-4700] | 11 µM | 1.051 and 0.9016 | 1.104 and 0.9037 | 1.126 and 0.8562 | 1.098 and 0.832 | 1.037 and 0.7686 | 0.8525 and 0.6514 | 0.7753 and 0.6291 | 0.583 and 0.5184 | 0.4409 and 0.3702 | 0.3305 and 0.2635 | 20.9 µM | 20.9 µM | 1 | 0.9948 | 1.113 | 1.071 | 0.9943 | 0.904 | 0.762 | RPS10 fluorescence ratio to control (RPS10; 1Ai conc. 32 uM): 0.6123; RPS10 fluorescence ratio to control (RPS10; 1Ai conc. 64 uM): 0.5202; RPS10 fluorescence ratio to control (RPS10; 1Ai conc. 256 uM): 0.4416; IC50 (RPS10; read-out: IC50 (line under RPS10 binding data)): 4.9 µM; IC50 (RPS10; read-out: RPS10 IC50): 4.9 µM; IC50 (RPS10; summary table, fluorescence binding assay, read-out: IC50 concentration (µM), RPS10): 4.9 µM; US/DS ratio, average [1]: 0.7947; GFP reporter ratio nsp1/gfp, avg (NSP1): 0.4331; GFP reporter ratio nsp1/gfp, rep 1 (NSP1): 0.4284; GFP reporter ratio nsp1/gfp, rep 2 (NSP1): 0.4378; gfp signal, mean of duplicate wells (NSP1): 2716 and 2411 and 2645; nsp1 signal, mean of duplicate wells (NSP1): 1163.5 and 1055.5 and 1429.5; ratio (nsp1/gfp) (NSP1): 0.428 and 0.438 and 0.540
2 | CN1CCN(S(=O)(=O)c2ccc(N3Cc4cc5c(cc4C4(CCCC4)C3)OCCO5)nc2)CC1 [1Ai-3564] | 15 µM | 1.044 and 1 | 1.089 and 1.095 | 1.239 and 0.9891 | 1.143 and 0.9513 | 1.209 and 0.9045 | 1.156 and 0.8599 | 1.357 and 1.021 | 1.557 and 1.107 | 1.6 and 1.164 | 1.73 and 1.413 | 35.2 µM | 35.3 µM | 1 | 0.8515 | 0.9657 | 0.9853 | 0.8932 | 0.9434 | 0.942 | RPS10 fluorescence ratio to control (RPS10; 1Ai conc. 32 uM): 1; RPS10 fluorescence ratio to control (RPS10; 1Ai conc. 64 uM): 1.142; RPS10 fluorescence ratio to control (RPS10; 1Ai conc. 256 uM): 1.206; RPS10 IC50 (RPS10; fluorescence binding): No binding; IC50 concentration (µM), RPS10 (RPS10; summary table, fluorescence binding assay): No binding; US/DS ratio, average [1]: 0.4649; GFP reporter ratio nsp1/gfp, avg (NSP1): 0.5007; GFP reporter ratio nsp1/gfp, rep 1 (NSP1): 0.5007; gfp signal, mean of duplicate wells (NSP1): 362.5; nsp1 signal, mean of duplicate wells (NSP1): 181.5; ratio (nsp1/gfp) (NSP1): 0.501
